Reference: publication PMC7721686, “Isolation, Characterization and Structure Elucidation of a Novel Lantibiotic From Paenibacillus sp” (Frontiers in Microbiology, 2020)
Values after ≈ are worked out from the molar mass of the structure shown. Like-named read-outs stand apart in the source and are kept apart here. Positions of bridges follow the written chain, without caps; N, C: chain ends. Non-standard residues stand in square brackets, D forms with d. Residues, ends and D or L forms follow the SMILES beside them. *: point of attachment. X1 = CC[C@H](C)CCCCC(=O)*; Dab = NCC[C@H](N)C(=O)O

Assays:
[1] = system: Multi-drug resistant A. baumannii CH-46; conditions: Multi-drug resistant A. baumannii CH-46 (CH46 in Table S1, drug resistance Y); broth microplate dilution
[2] = system: Acinetobacter baumannii CH36
[3] = system: Acinetobacter calcoaceticus CH37
[4] = system: Acinetobacter baumannii CH38
[5] = system: Acinetobacter baumannii CH39
[6] = system: Acinetobacter baumannii CH40
[7] = system: Acinetobacter ursingii CH41; conditions: CH41, A. ursingii, drug resistance N
[8] = system: Acinetobacter guillouiae CH42
[9] = system: Acinetobacter modestus CH43
[10] = system: Acinetobacter septicus CH44; conditions: CH44, A. septicus, drug resistance N
[11] = system: Acinetobacter baumannii CH45
[12] = system: Acinetobacter baumannii CH47
[13] = system: Acinetobacter baumannii CH48
[14] = system: Acinetobacter baumannii CH49
[15] = system: Acinetobacter baumannii CH50
[16] = system: Acinetobacter baumannii CH51
[17] = system: Acinetobacter baumannii CH52
[18] = system: Acinetobacter baumannii CH53
[19] = system: Acinetobacter baumannii CH54
[20] = system: Acinetobacter baumannii CH55
[21] = system: Multi-drug resistant A. baumannii CH-46; assay: microbe, parasite or virus in culture; conditions: Acinetobacter baumannii
[22] = system: Acinetobacter baumannii CH36; assay: microbe, parasite or virus in culture
[23] = system: Acinetobacter calcoaceticus CH37; assay: microbe, parasite or virus in culture
[24] = system: Acinetobacter baumannii CH38; assay: microbe, parasite or virus in culture
[25] = system: Acinetobacter baumannii CH39; assay: microbe, parasite or virus in culture
[26] = system: Acinetobacter baumannii CH40; assay: microbe, parasite or virus in culture
[27] = system: Acinetobacter ursingii CH41; assay: microbe, parasite or virus in culture
[28] = system: Acinetobacter guillouiae CH42; assay: microbe, parasite or virus in culture
[29] = system: Acinetobacter modestus CH43; assay: microbe, parasite or virus in culture
[30] = system: Acinetobacter septicus CH44; assay: microbe, parasite or virus in culture
[31] = system: Acinetobacter baumannii CH45; assay: microbe, parasite or virus in culture
[32] = system: Acinetobacter baumannii CH47; assay: microbe, parasite or virus in culture
[33] = system: Acinetobacter baumannii CH48; assay: microbe, parasite or virus in culture
[34] = system: Acinetobacter baumannii CH49; assay: microbe, parasite or virus in culture
[35] = system: Acinetobacter baumannii CH50; assay: microbe, parasite or virus in culture
[36] = system: Acinetobacter baumannii CH51; assay: microbe, parasite or virus in culture
[37] = system: Acinetobacter baumannii CH52; assay: microbe, parasite or virus in culture
[38] = system: Acinetobacter baumannii CH53; assay: microbe, parasite or virus in culture
[39] = system: Acinetobacter baumannii CH54; assay: microbe, parasite or virus in culture
[40] = system: Acinetobacter baumannii CH55; assay: microbe, parasite or virus in culture
[41] = system: S. aureus (ATCC 29213); format: cell-based, Staphylococcus aureus; conditions: overnight 37°C
[42] = system: MDR S. aureus (CH-11); format: cell-based, Staphylococcus aureus
[43] = system: S. aureus ATCC 29213 (SA) biofilm; assay: Anti-biofilm activity, pre-formed biofilm; format: cell-based, Staphylococcus aureus; conditions: only at the highest concentration 100 μg/mL, 4 h, PrestoBlue
[44] = system: S. aureus ATCC 29213; assay: Inhibition of bacterial adhesion, pre-coated polystyrene plates; format: cell-based, Staphylococcus aureus; conditions: wells pre-treated at 10 μg/mL, washed; bacteria incubated 1 to 24 h at 37°C, PrestoBlue

CC[C@H](C)CCCCC(=O)N[C@@H](CCN)C(=O)N[C@H](C(=O)N[C@@H](CCN)C(=O)N[C@H]1CCNC(=O)[C@H]([C@@H](C)O)NC(=O)[C@H](CCN)NC(=O)[C@H](CCN)NC(=O)[C@H](CC(C)C)NC(=O)[C@@H](CC(C)C)NC(=O)[C@H](CCN)NC1=O)[C@@H](C)O [Colistin] (X1-[Dab]T[Dab][Dab][Dab][dL]L[Dab][Dab]T; lactam 4-C (inferred); N-terminus assumed)
MIC [1]: 3.91 µg/mL (≈ 3.34 µM) | MIC [2]: 3.91 µg/mL (≈ 3.34 µM) | MIC [3]: 3.91 µg/mL (≈ 3.34 µM) | MIC [4]: 3.91 µg/mL (≈ 3.34 µM) | MIC [5]: 3.91 µg/mL (≈ 3.34 µM) | MIC [6]: 5.86 µg/mL (≈ 5.01 µM) | MIC [7]: 1.95 µg/mL (≈ 1.67 µM) | MIC [8]: 3.91 µg/mL (≈ 3.34 µM) | MIC [9]: 7.81 µg/mL (≈ 6.68 µM) | MIC [10]: 1.95 µg/mL (≈ 1.67 µM) | MIC [11]: 3.91 µg/mL (≈ 3.34 µM) | MIC [12]: 3.91 µg/mL (≈ 3.34 µM) | MIC [13]: 3.91 µg/mL (≈ 3.34 µM) | MIC [14]: 3.91 µg/mL (≈ 3.34 µM) | MIC [15]: 5.86 µg/mL (≈ 5.01 µM) | MIC [16]: 3.91 µg/mL (≈ 3.34 µM) | MIC [17]: 3.91 µg/mL (≈ 3.34 µM) | MIC [18]: 3.91 µg/mL (≈ 3.34 µM) | MIC [19]: 5.86 µg/mL (≈ 5.01 µM) | MIC [20]: 7.81 µg/mL (≈ 6.68 µM)

C[C@@H](O)[C@H]1C(=O)N2C(C(=O)O)=C(SCCN=CN)C[C@H]12 [Imipenem]
MIC [21]: 250 µg/mL (≈ 835 µM) | MIC [22]: 250 µg/mL (≈ 835 µM) | MIC [23]: 0.5 µg/mL (≈ 1.67 µM) | MIC [24]: 125 µg/mL (≈ 418 µM) | MIC [25]: 15.6 µg/mL (≈ 52.2 µM) | MIC [26]: 31.2 µg/mL (≈ 104 µM) | MIC [27]: 1 µg/mL (≈ 3.34 µM) | MIC [28]: 7.81 µg/mL (≈ 26.1 µM) | MIC [29]: 0.5 µg/mL (≈ 1.67 µM) | MIC [30]: 1.46 µg/mL (≈ 4.88 µM) | MIC [31]: 125 µg/mL (≈ 418 µM) | MIC [32]: 3.91 µg/mL (≈ 13.1 µM) | MIC [33]: 7.81 µg/mL (≈ 26.1 µM) | MIC [34]: 62.5 µg/mL (≈ 209 µM) | MIC [35]: 62.5 µg/mL (≈ 209 µM) | MIC [36]: 31.2 µg/mL (≈ 104 µM) | MIC [37]: 31.2 µg/mL (≈ 104 µM) | MIC [38]: 31.2 µg/mL (≈ 104 µM) | MIC [39]: 7.81 µg/mL (≈ 26.1 µM) | MIC [40]: 46.9 µg/mL (≈ 157 µM)

COc1cccc(OC)c1C(=O)N[C@@H]1C(=O)N2[C@@H]1SC(C)(C)[C@@H]2C(=O)O [Methicillin]
Frequency of Resistance to antibiotics ([41]; 2X MIC in Mueller-Hinton agar, resistant colonies / CFU of inoculum): < 3.72 × 10^–10 | Frequency of Resistance to antibiotics ([41]; 3X MIC in Mueller-Hinton agar): < 3.72 × 10^–10 | Frequency of Resistance to antibiotics ([41]; 4X MIC in Mueller-Hinton agar): < 3.72 × 10^–10 | Frequency of Resistance to antibiotics ([41]; 5X MIC in Mueller-Hinton agar): < 3.72 × 10^–10 | Frequency of Resistance to antibiotics ([41]; 10X MIC in Mueller-Hinton agar): < 3.72 × 10^–10 | Frequency of Resistance to antibiotics [42]: resistant

CN[C@H](CC(C)C)C(=O)N[C@H]1C(=O)N[C@@H](CC(N)=O)C(=O)N[C@H]2C(=O)N[C@H]3C(=O)N[C@H](C(=O)N[C@H](C(=O)O)c4cc(O)cc(O)c4-c4cc3ccc4O)[C@H](O)c3ccc(c(Cl)c3)Oc3cc2cc(c3O[C@@H]2O[C@H](CO)[C@@H](O)[C@H](O)[C@H]2O[C@H]2C[C@](C)(N)[C@H](O)[C@H](C)O2)Oc2ccc(cc2Cl)[C@H]1O [vancomycin]
Effect on viability of pre-formed biofilm [43]: partially effective

B1: platelet factor 4: control cationic peptide (protein, UniProt P02776 32-101, looked up)
Platelet factor 4: EAEEDGDLQCLCVKTTSQVRPRHITSLEVIKAGPHCPTAQLIATLKNGRKICLDLQAPLYKKIIKKLLES
Inhibition of cell adhesion / biofilm formation on pre-treated polystyrene wells [44]: no effect on biofilm formation
